# Laboratory results taken from patent publication US6512000B1, “Aminocarbonyl-substituted benzimidazoles having tryptase-inhibitory activity” (Boehringer Ingelheim Pharma KG, priority 1999, dated 2003).
# Target: T1, rh beta tryptase (Homo sapiens, UniProt P20231)
# T1 construct: purchased Promega
# Assay: Tryptase inhibition test (cleavage of N-p-tosyl-Gly-Pro-Lys-para-nitroaniline, p-nitroaniline measured at 405 nm)
# Format: biochemical
# Conditions: pH 7.4, 37° C.; for inhibition at 10 µM / % Inhibition (10 μM): inhibition of rh beta tryptase at 10 μM test substance, substrate N-p-tosyl-Gly-Pro-Lys-para-nitroaniline 0.6 mM, 5 minutes; for IC50: concentration at which 50% of the tryptase enzyme activity is inhibited, substrate 0.6 mM
# Procedure, shortened: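 Recombinant human beta tryptase (0.91 U/ml) in 100 mM Tris HCl pH 7.4 with 5 mM calcium and 100 mg/ml heparin; compounds pre-incubated 5 min, then 0.6 mM tosyl-Gly-Pro-Lys-pNA added, 5 min at 37 °C. p-Nitroaniline read at 405 nm; % inhibition at 10 μM, IC50 determined when inhibition exceeded 70%.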
# T1 sequence (P20231 31-275): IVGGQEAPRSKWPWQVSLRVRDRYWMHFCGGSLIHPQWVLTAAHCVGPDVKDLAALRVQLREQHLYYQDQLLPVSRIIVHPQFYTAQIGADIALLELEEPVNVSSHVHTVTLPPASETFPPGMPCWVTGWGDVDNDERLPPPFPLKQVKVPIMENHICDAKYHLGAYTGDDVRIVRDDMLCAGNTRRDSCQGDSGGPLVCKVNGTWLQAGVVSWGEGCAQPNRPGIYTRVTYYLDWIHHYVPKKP
SMILES,inhibition at 10 µM,IC50,% Inhibition (10 μM)
"N=C(N)c1ccc(CCc2nc3cc(C(=O)N(Cc4ccccc4)Cc4ccc(CN)cc4)ccc3n2CC2CCCO2)cc1 (centres unmarked) [Example 114, 2-[2-(4-amidinophenyl)ethyl]-1-(tetrahydrofuran-2-yl-methyl)-benzimidazol-5-yl-carboxylic acid-N-[4-(amino-methyl)-benzyl]-N-benzyl-amide]",58%,,
"CCOCCCn1c(CCc2ccc(C(=N)N)cc2)nc2cc(C(=O)N(Cc3ccc(CN)cc3)CC3CCCCC3)ccc21 [Example 150, 2-[2-(4-amidinophenyl)ethyl]-1-(3-ethoxypropyl)-benzimidazol-5-yl-carboxylic acid-N-[4-(amino-methyl)-benzyl]-N-cyclohexylmethyl-amide]",60%,0.292 µM,
"N=C(N)c1ccc(CCc2nc3cc(C(=O)N(Cc4ccc(CN)cc4)CC4CCCCC4)ccc3n2CCCNC(=O)Cc2ccccc2)cc1 [Example 152, 2-[2-(4-amidinophenyl)ethyl]-1-[3-(benzylcarbonylamino)-propyl]-benzimidazol-5-yl-carboxylic acid-N-[4-(amino-methyl)-benzyl]-N-cyclohexylmethyl-amide]",65%,,
"N=C(N)c1ccc(CCc2nc3cc(C(=O)N(Cc4ccc(CN)cc4)CC4CCCCC4)ccc3n2CC2CC2)cc1 [Example 154, 2-[2-(4-amidinophenyl)ethyl]-1-cyclopropylmethyl-benzimidazol-5-yl-carboxylic acid-N-[4-(amino-methyl)-benzyl]-N-cyclohexylmethyl-amide]",63%,,
"N=C(N)c1ccc(CCc2nc3cc(C(=O)N(Cc4ccc(CN)cc4)CC4CCCCC4)ccc3n2CCc2ccccc2)cc1 [Example 155, 2-[2-(4-amidinophenyl)ethyl]-1-(2-phenylethyl)-benzimidazol-5-yl-carboxylic acid-N-[4-(amino-methyl)-benzyl]-N-cyclohexylmethyl-amide]",57%,,
"N=C(N)c1ccc(CCc2nc3cc(C(=O)N(Cc4ccc(CN)cc4)CC4CCCCC4)ccc3n2CCCN2CCOCC2)cc1 [Example 161, 2-[2-(4-amidinophenyl)ethyl]-1-[3-(morpholin-4-yl)-propyl]-benzimidazol-5-yl-carboxylic acid-N-[4-(amino-methyl)-benzyl]-N-cyclohexylmethyl-amide]",56%,,
"N=C(N)c1ccc(CCc2nc3cc(C(=O)N(Cc4ccc(CN)cc4)CC4CCCCC4)ccc3n2CC2CCCO2)cc1 (centres unmarked) [Example 162, 2-[2-(4-amidinophenyl)ethyl]-1-(tetrahydrofuran-2-yl-methyl)-benzimidazol-5-yl-carboxylic acid-N-[4-(amino-methyl)-benzyl]-N-cyclohexylmethyl-amide]",60%,,
"CCOCCCn1c(CCc2ccc(C(=N)N)cc2)nc2cc(C(=O)N(CCCc3ccccc3)Cc3ccc(CN)cc3)ccc21 [Example 166, 2-[2-(4-amidinophenyl)ethyl]-1-(3-ethoxypropyl)-benzimidazol-5-yl-carboxylic acid-N-[4-(amino-methyl)-benzyl]-N-(3-phenylpropyl)-amide]",57%,0.274 µM,
"CCCCN(CCCC)CCCn1c(CCc2ccc(C(=N)N)cc2)nc2cc(C(=O)N(CCCc3ccccc3)Cc3ccc(CN)cc3)ccc21 [Example 167, 2-[2-(4-amidinophenyl)ethyl]-1-(3-di-n-butylaminopropyl) benzimidazol-5-yl-carboxylic acid-N-[4-(amino-methyl)-benzyl]-N-(3-phenylpropyl)-amide]",52%,,
"N=C(N)c1ccc(CCc2nc3cc(C(=O)N(CCCc4ccccc4)Cc4ccc(CN)cc4)ccc3n2CCCNC(=O)Cc2ccccc2)cc1 [Example 168, 2-[2-(4-amidinophenyl)ethyl]-1-[3-(benzylcarbonylamino)-propyl]-benzimidazol-5-yl-carboxylic acid-N-[4-(amino-methyl)-benzyl]-N-(3-phenylpropyl)-amide]",66%,,
"N=C(N)c1ccc(CCc2nc3cc(C(=O)N(CCCc4ccccc4)Cc4ccc(CN)cc4)ccc3n2CCC2CCCCC2)cc1 [Example 169, 2-[2-(4-amidinophenyl)ethyl]-1-(2-cyclohexylethyl)-benzimidazol-5-yl-carboxylic acid-N-[4-(amino-methyl)-benzyl]-N-(3-phenylpropyl)-amide]",52%,,
"N=C(N)c1ccc(CCc2nc3cc(C(=O)N(CCCc4ccccc4)Cc4ccc(CN)cc4)ccc3n2CC2CC2)cc1 [Example 170, 2-[2-(4-amidinophenyl)ethyl]-1-cyclopropylmethyl-benzimidazol-5-yl-carboxylic acid-N-[4-(amino-methyl)-benzyl]-N-(3-phenylpropyl)-amide]",57%,,
"N=C(N)c1ccc(CCc2nc3cc(C(=O)N(Cc4ccc(Cl)cc4)Cc4ccc(CN)cc4)ccc3n2CC2CCCO2)cc1 (centres unmarked) [Example 194, 2-[2-(4-amidinophenyl)ethyl]-1-(tetrahydrofuran-2-yl-methyl)-benzimidazol-5-yl-carboxylic acid-N-[4-(amino-methyl)-benzyl]-N-(4-chlorbenzyl)-amide]",,,61%

# The remaining lines, values ahead:
inhibition at 10 µM,IC50,% Inhibition (10 μM),SMILES
51%,,,"Cc1ccc(Cn2c(CCc3ccc(C(=N)N)cc3)nc3cc(C(=O)N(CCCc4ccccc4)Cc4ccc(CN)cc4)ccc32)cc1 [Example 173, 2-[2-(4-amidinophenyl)ethyl]-1-(4-methylbenzyl)-benzimidazol-5-yl-carboxylic acid-N-[4-(amino-methyl)-benzyl]-N-(3-phenylpropyl)-amide]"
68%,,,"N=C(N)c1ccc(CCc2nc3cc(C(=O)N(CCCc4ccccc4)Cc4ccc(CN)cc4)ccc3n2CCCN2CCOCC2)cc1 [Example 177, 2-[2-(4-amidinophenyl)ethyl]-1-[3-(morpholin-4-yl)-propyl]-benzimidazol-5-yl-carboxylic acid-N-[4-(amino-methyl)-benzyl]-N-(3-phenylpropyl)-amide]"
51%,,,"N=C(N)c1ccc(CCc2nc3cc(C(=O)N(CCCc4ccccc4)Cc4ccc(CN)cc4)ccc3n2CC2CCCO2)cc1 (centres unmarked) [Example 178, 2-[2-(4-amidinophenyl)ethyl]-1-(tetrahydrofuran-2-yl-methyl)-benzimidazol-5-yl-carboxylic acid-N-[4-(amino-methyl)-benzyl]-N-(3-phenylpropyl)-amide]"
,,67%,"CCOCCCn1c(CCc2ccc(C(=N)N)cc2)nc2cc(C(=O)N(Cc3ccc(Cl)cc3)Cc3ccc(CN)cc3)ccc21 [Example 182, 2-[2-(4-amidinophenyl)ethyl]-1-(3-ethoxypropyl)-benzimidazol-5-yl-carboxylic acid-N-[4-(amino-methyl)-benzyl]-N-(4-chlorbenzyl)-amide]"
,,56%,"CCCCN(CCCC)CCCn1c(CCc2ccc(C(=N)N)cc2)nc2cc(C(=O)N(Cc3ccc(Cl)cc3)Cc3ccc(CN)cc3)ccc21 [Example 183, 2-[2-(4-amidinophenyl)ethyl]-1-(3-di-n-butylaminopropyl)-benzimidazol-5-yl-carboxylic acid-N-[4-(amino-methyl)-benzyl]-N-(4 chlorbenzyl)-amide]"
,,72%,"N=C(N)c1ccc(CCc2nc3cc(C(=O)N(Cc4ccc(Cl)cc4)Cc4ccc(CN)cc4)ccc3n2CCCNC(=O)Cc2ccccc2)cc1 [Example 184, 2-[2-(4-amidinophenyl)ethyl]-1-[3-(benzylcarbonylamino)-propyl]-benzimidazol-5-yl-carboxylic acid-N-[4-(amino-methyl)-benzyl]-N-(4-chlorbenzyl)-amide]"
,,60%,"N=C(N)c1ccc(CCc2nc3cc(C(=O)N(Cc4ccc(Cl)cc4)Cc4ccc(CN)cc4)ccc3n2CC2CC2)cc1 [Example 186, 2-[2-(4-amidinophenyl)ethyl]-1-cyclopropylmethyl-benzimidazol-5-yl-carboxylic acid-N-[4-(amino-methyl)-benzyl]-N-(4-chlorbenzyl)-amide]"
,,63%,"N=C(N)c1ccc(CCc2nc3cc(C(=O)N(Cc4ccc(Cl)cc4)Cc4ccc(CN)cc4)ccc3n2CCc2ccccc2)cc1 [Example 187, 2-[2-(4-amidinophenyl)ethyl]-1-(2-phenylethyl)-benzimidazol-5-yl-carboxylic acid-N-[4-(amino-methyl)-benzyl]-N-(4-chlorbenzyl)-amide]"
,,59%,"N=C(N)c1ccc(CCc2nc3cc(C(=O)N(Cc4ccc(Cl)cc4)Cc4ccc(CN)cc4)ccc3n2CCCN2CCOCC2)cc1 [Example 193, 2-[2-(4-amidinophenyl)ethyl]-1-[3-(morpholin-4-yl)-propyl]-benzimidazol-5-yl-carboxylic acid-N-[4-(amino-methyl)-benzyl]-N-(4-chlorbenzyl)-amide]"
63%,0.458 µM,,"CCOCCCn1c(CCc2ccc(C(=N)N)cc2)nc2cc(C(=O)N(Cc3ccc(CN)cc3)Cc3cccc(C(F)(F)F)c3)ccc21 [Example 198, 2-[2-(4-amidinophenyl)ethyl]-1-(3-ethoxypropyl)-benzimidazol-5-yl-carboxylic acid-N-[4-(amino-methyl)-benzyl]-N-(3-trifluoromethylbenzyl)-amide]"
69%,,,"N=C(N)c1ccc(CCc2nc3cc(C(=O)N(Cc4ccc(CN)cc4)Cc4cccc(C(F)(F)F)c4)ccc3n2CCCNC(=O)Cc2ccccc2)cc1 [Example 200, 2-[2-(4-amidinophenyl)ethyl]-1-[3-(benzylcarbonylamino)-propyl]-benzimidazol-5-yl-carboxylic acid-N-[4-(amino-methyl)-benzyl]-N-(3-trifluoromethylbenzyl)-amide]"
58%,0.822 µM,,"N=C(N)c1ccc(CCc2nc3cc(C(=O)N(Cc4ccc(CN)cc4)Cc4cccc(C(F)(F)F)c4)ccc3n2CC2CC2)cc1 [Example 202, 2-[2-(4-amidinophenyl)ethyl]-1-cyclopropylmethyl-benzimidazol-5-yl-carboxylic acid-N-[4-(amino-methyl)-benzyl]-N-(3-trifluoromethylbenzyl)-amide]"
